Here are results for 11 compounds from ChEMBL document CHEMBL2406993, “Deconstruction of a nutlin: dissecting the binding determinants of a potent protein-protein interaction inhibitor” (ACS Med Chem Lett, 2013).

For assay [1], the species on record is Homo sapiens. Description: Inhibition of Humanized-Xenopus MDM2 (13-119 amino acids) interaction with p53 at 100 uM by SPR analysis. A general note: SPR reads the build-up and loss of mass on a sensor chip optically.
Assay [2] is filed under the species Homo sapiens. Nature of the assay: Inhibition of [15N]-labeled humanized-Xenopus MDM2 (13-119 amino acids) interaction with p53 at 2 mM by NMR method.
The species entered for assay [3] is Homo sapiens. Description: Inhibition of Humanized-Xenopus MDM2 (13-119 amino acids) interaction with p53 at 1 to 2.5 mM by SPR analysis.
The species named for assay [4] is Homo sapiens. Description: Inhibition of [15N]-labeled humanized-Xenopus MDM2 (13-119 amino acids) interaction with p53 at 1 mM by NMR method.
Assay [5] can be described thus: Inhibition of Humanized-Xenopus MDM2 (13-119 amino acids) interaction with p53 by SPR analysis. On the set-up: species or system Homo sapiens.
The species entered for assay [6] is Homo sapiens. Description: Inhibition of [15N]-labeled humanized-Xenopus MDM2 (13-119 amino acids) interaction with p53 at 0.5 mM by NMR method.
For assay [7], the species on record is Homo sapiens. Description: Inhibition of [15N]-labeled humanized-Xenopus MDM2 (13-119 amino acids) interaction with p53 at 0.4 mM by NMR method.

Activity calls are given as the source filed them. No cut-off for these calls is given here.

Turning to `CCOc1cc(C(C)(C)C)ccc1C1=NCC(c2ccc(Cl)cc2)N1` (configuration not stated), in the assay filed under Homo sapiens [1], the inhibition entry is “inactive”. Besides, the inhibition result in the assay listed under Homo sapiens [2] is “Active”.
Turning to `Clc1ccccc1`, the inhibition result in the assay listed under Homo sapiens [3] and in the assay listed under Homo sapiens [4] was “inactive” in each case.
As to `c1c[nH]cn1`, the inhibition entry in the assay listed under Homo sapiens [3] and in the assay listed under Homo sapiens [4] was “inactive” each time.
Take `CC1=N[C@@](C)(c2ccc(Cl)cc2)[C@@](C)(c2ccc(Cl)cc2)N1C(=O)N1CCN(CCCS(C)(=O)=O)CC1`: the Kd (usually the equilibrium constant for the complex coming apart) in assay [5] was 14 µM. The inhibition entry in the assay filed under Homo sapiens [4] was “Active”.
Regarding `CC1=N[C@@H](c2ccccc2)[C@@H](c2ccccc2)N1`, the inhibition entry in the assay listed under Homo sapiens [3] and in the assay filed under Homo sapiens [2] was “inactive” in each case.
In the case of `CCOc1cc(C(C)(C)C)ccc1C1=N[C@@](C)(c2ccc(Cl)cc2)[C@@](C)(c2ccc(Cl)cc2)N1C(=O)N1CCN(CCCS(C)(=O)=O)CC1` [RO-5045337], the inhibition entry in the assay filed under Homo sapiens [6] was “Active”. In assay [5], the Kd was 0.22 µM.
For the compound `CCOc1cc(C(C)(C)C)ccc1C1=NCCN1C(=O)N1CCN(CCCS(C)(=O)=O)CC1`, the inhibition entry in the assay listed under Homo sapiens [1] and in the assay listed under Homo sapiens [4] was “inactive” throughout.
Turning to `CCOc1cc(C(C)(C)C)ccc1C1=NC(c2ccccc2)CN1C(=O)N1CCN(CCCS(C)(=O)=O)CC1` (configuration not stated), the equilibrium dissociation constant (Kd) in assay [5] came out at 1000 µM. Moreover, the inhibition result in the assay listed under Homo sapiens [4] was “Active”.
In the case of `CCOc1cc(C(C)(C)C)ccc1-c1ncc[nH]1`, the inhibition result in the assay listed under Homo sapiens [3] and in the assay filed under Homo sapiens [2] was “inactive” each time.
As to `CCOc1cc(C(C)(C)C)ccc1C1=N[C@@](C)(c2ccc(Cl)cc2)[C@@](C)(c2ccc(Cl)cc2)N1`, the inhibition result in the assay filed under Homo sapiens [7] is “Active”. In assay [5], this compound had a dissociation constant Kd of 20 µM.
The matching figures for `CC1=N[C@@H](c2ccc(Cl)cc2)[C@@H](c2ccc(Cl)cc2)N1`: “Active” and 26 µM.
